IC50 data for two compounds are collected here from paper PMC12124671, “Drug repurposing reveals posaconazole as a CYP11A1 inhibitor enhancing anti-tumor immunity” (iScience, 2025).

For assay [1], the target named is T1, CYP11A1 (Mus musculus, UniProt Q9QZ82).
T1 sequence (Q9QZ82 37-526): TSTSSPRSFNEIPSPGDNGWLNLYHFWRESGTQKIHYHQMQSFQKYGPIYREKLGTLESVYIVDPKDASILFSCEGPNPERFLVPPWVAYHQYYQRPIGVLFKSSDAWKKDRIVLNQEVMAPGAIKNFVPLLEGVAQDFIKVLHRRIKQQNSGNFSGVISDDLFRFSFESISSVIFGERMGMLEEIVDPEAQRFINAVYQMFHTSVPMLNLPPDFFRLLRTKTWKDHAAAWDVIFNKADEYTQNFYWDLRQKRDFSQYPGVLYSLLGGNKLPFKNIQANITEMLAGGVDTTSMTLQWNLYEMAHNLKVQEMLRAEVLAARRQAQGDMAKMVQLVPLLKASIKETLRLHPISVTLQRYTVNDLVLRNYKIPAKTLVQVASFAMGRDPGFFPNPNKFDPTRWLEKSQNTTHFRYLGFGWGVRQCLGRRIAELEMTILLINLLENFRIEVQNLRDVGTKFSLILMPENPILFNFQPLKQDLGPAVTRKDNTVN
Put plainly: pregnenolone ELISA in murine Th2 cells (endogenous Cyp11a1), reference inhibitor, […] h dose response. Format: cell-based.

The target of assay [2] is T1, CYP11A1. Briefly: pregnenolone ELISA in murine Th2 cells (endogenous Cyp11a1), dose response. Format: cell-based. A general note: An ELISA detects its analyte on a solid surface through an enzyme-linked reagent.

As a reminder, the IC50 is the concentration needed to halve the response being measured. Low readings indicate greater potency, high ones weaker potency. `CCC1(c2ccc(N)cc2)CCC(=O)NC1=O` (centres unmarked) [aminoglutethimide] gave a half-inhibitory concentration (IC50) against CYP11A1 [1] of 1080 nM. On CYP11A1 [2], `CC[C@@H]([C@H](C)O)n1ncn(-c2ccc(N3CCN(c4ccc(OC[C@@H]5CO[C@@](Cn6cncn6)(c6ccc(F)cc6F)C5)cc4)CC3)cc2)c1=O` [posaconazole] came in with an IC50 of 218 nM.
